Source: patent publication US20240103015A1, “METHODS FOR ASSAYING SLC34A2 EXPRESSION IN MUSCLE TISSUE AND TREATING FACIOSCAPULOHUMERAL MUSCULAR DYSTROPHY” (University of Maryland, Baltimore, priority 2022, published 2024)

Experiments:
[1] = system: SLC34A2 protein in C6 (FSHD) myotubes; assay: Immunoblot of SLC34A2 protein in cultured FSHD myotubes treated with p38 kinase inhibitors; type: cell-based, human; settings: for expression of the SLC34A2 protein: cultured C6 (FSHD) myotubes
Text: (i): We have adapted and improved our procedures to assay for SLC34A2 mRNA and protein in myotubes of immortalized myoblasts derived from FSHD and healthy individuals. To establish the validity of our assays, we use losmapimod and other p38 kinase inhibitors.

[2] = system: DUX4 target genes (MBD3L2, LEUTX, SLC34A2); assay: qPCR of DUX4 target gene mRNAs in FSHD xenografts of treated mice; type: in vivo, mouse
Protocol: Xenografts are treated starting at 5 weeks after initial engraftment. Dosage is 10 mg/kg BID, injected IP.

SLC34A2 [3] = settings: cited from earlier work
[4] = system: SLC34A2 protein at the surface of FSHD myotubes; assay: Surface labeling of SLC34A2 protein on FSHD myotubes with and without losmapimod; type: cell-based, human
Text: FIG. 20. Labeling of SLC34A2 protein at the surface of FSHD myotubes, with and without treatment with losmapimod. […] FIG. 21. Relative intensities of surface labeling of SLC34A2 in FSHD myotubes with and without losmapimod treatment, as in FIG. 20, normalized to the desmin signal in each ROI. *, p<0.05.

[5] = system: DUX4, SLC34A2 and other downstream gene products of DUX4; assay: Relative mRNA expression of DUX4 and downstream genes in FSHD myotubes with and without losmapimod; type: cell-based, human
Text: FIG. 22. Relative mRNA expression of DUX4, SLC34A2, and other downstream gene products of DUX4, in the presence and absence of losmapimod. *, p<0.05, **, p<0.01.

[6] = molecular target: T1, SLC34A2 in FSHD xenografts (Homo sapiens, UniProt O95436); assay: IVIS imaging of living mice carrying xenografts after injection of fluorescent antibody; type: in vivo, mouse; settings: living mice (IVIS) and frozen sections
T1 construct: from tissue; host or cells: Xenografts of human FSHD myoblasts (C6, 15A; controls A4, 15V) in the tibialis anterior of NRG mice
T1 sequence (O95436 1-689 isoform O95436-2 D633G): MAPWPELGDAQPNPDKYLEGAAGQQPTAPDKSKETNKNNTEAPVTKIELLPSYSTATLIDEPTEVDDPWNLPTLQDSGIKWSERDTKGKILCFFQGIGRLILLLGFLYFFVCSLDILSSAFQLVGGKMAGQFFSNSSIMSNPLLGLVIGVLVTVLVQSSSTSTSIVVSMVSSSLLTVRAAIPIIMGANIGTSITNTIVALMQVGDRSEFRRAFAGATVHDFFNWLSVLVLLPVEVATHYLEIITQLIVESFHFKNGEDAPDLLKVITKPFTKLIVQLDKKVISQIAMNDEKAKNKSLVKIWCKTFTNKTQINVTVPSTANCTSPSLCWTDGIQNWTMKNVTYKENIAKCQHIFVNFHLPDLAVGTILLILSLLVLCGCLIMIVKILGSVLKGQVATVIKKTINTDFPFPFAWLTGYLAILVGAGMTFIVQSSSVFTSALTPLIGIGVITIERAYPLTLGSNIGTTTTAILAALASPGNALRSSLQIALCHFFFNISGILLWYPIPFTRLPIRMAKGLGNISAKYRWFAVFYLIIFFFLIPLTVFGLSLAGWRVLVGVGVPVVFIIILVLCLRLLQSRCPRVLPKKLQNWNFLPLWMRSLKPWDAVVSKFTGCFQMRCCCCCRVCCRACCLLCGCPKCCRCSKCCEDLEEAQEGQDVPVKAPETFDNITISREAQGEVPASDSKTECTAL
Text: (ii): Given the level of variability we observe in our xenografts, and the small numbers of FSHD myofibers in the grafts generated by some of the FSHD cell lines we have been studying, we thought it important to be able to monitor the diseased myofibers in living mice. Our approach is to inject mice with an infrared fluorescent version of a monoclonal antibody to SLC34A2, MX-35, that recognizes an extracellular epitope of the protein and that has been used clinically with patients with ovarian cancer. This approach should allow us to estimate the lifetime of the fibers once they become positive for SLC34A2, and, using different IR fluorophores, what the rate of appearance of newly positive fibers is in our grafts. It could also be used to test potential treatments for FSHD both in mice and in clinical trials with FSHD patients.
Injection and Imaging: Mice will be injected IV with fluorescent mAb or Fab fragments either through the tail vein or retroorbitally, with 150 μg of the biotinylated antibodyfluorophore conjugate in […]. Imaging in a Xenogen IVIS Spectrum Optical In Vivo imaging System (Perkin Elmer), will begin 2 hr later, repeated daily for 3 days, and at longer intervals thereafter. Repeated injections will also be done at regular intervals, to be determined, based on the levels of the antibody-conjugate remaining in circulation.

SLC34A2 [7] = molecular target: T2, SLC34A2 (Homo sapiens, UniProt O95436, D634G); assay: Immunofluorescent labeling of frozen sections of xenografts with MX35; type: binding; settings: FSHD (C6) xenografts in Tibialis anterior of NRG mice
T2 construct: from tissue; host or cells: Xenografts of human FSHD myoblasts (C6, 15A; controls A4, 15V) in the tibialis anterior of NRG mice
T2 sequence (O95436 1-689 isoform O95436-2 D633G): T1 sequence (O95436 1-689 isoform O95436-2 D633G)
Text: (§1) Antibodies: MX35 is a mouse mAb from the Sloan-Kettering Research Institute. Biotinylation and conjugation of MX35 or its Fab fragments, to Alexa fluorophores from InVitrogen/ThermoFisher, will follow manufacturer's instructions. Rabbit mAbs to the N- and C-terminal regions of SLC34A2 (Cell Signaling) are used at 1:100 dilutions. Fluorescent secondary antibodies and streptavidin are available commercially.
(§2) Immunofluorescence: Mice will be euthanized and blood samples taken. Muscles will be collected and either snap frozen or processed for PCR or immunoblotting. Frozen muscles will be-sectioned on a cryostat and labeled for biotinylated MX35 with fluorescent streptavidin or antibodies to biotin. Double labeling with rabbit anti-SLC34A2 antibodies will be performed to confirm the identity of positive fibers. Additional labeling with human-specific antibodies (e.g., to β-spectrin, lamin followed by isoform-specific secondary antibodies will be used to confirm the identify of fibers of human origin in the xenografts, as: necessary.
(§3) Results: We used immortalized C6 myoblasts (14) to generate xenografts in the Tibialis anterior muscles of NRG mice. Cross sections of the graft show similar immunofluorescent labeling by MX35 and a rabbit Ab to the C-terminus of SLC34A2 (FIG. 6). […]

SLC34A2 [8] = molecular target: T3, SLC34A2 (Homo sapiens, UniProt O95436); assay: as above; type: binding; settings: control grafts generated with A4 cells
T3 construct: from tissue; host or cells: Xenografts of human FSHD myoblasts (C6, 15A; controls A4, 15V) in the tibialis anterior of NRG mice
T3 sequence (O95436 1-689 isoform O95436-2 D633G): T1 sequence (O95436 1-689 isoform O95436-2 D633G)
Text: as §1, §2, §3

SLC34A2 [9] = settings: epithelia and cancers; cited from earlier work
SLC34A2 [10] = molecular target: T2, SLC34A2; assay: Immunolabeling of living FSHD (C6) and control (A4) myotubes; type: binding; settings: FSHD (C6) vs control (A4) myotubes
Text: FIG. 14. Immunolabeling of living FSHD (C6) and control (A4) myotubes with MX35 and control IgG. DAPI was used as a counterstain (blue). Bound MX35 and control IgG were recognized with Alexa-568 labeled goat anti-mouse IgG (red).

SLC34A2 [11] = molecular target: T2, SLC34A2; assay: Immunoprecipitation of SLC34A2 from extracts of FSHD muscle cells in culture; type: binding
Text: FIG. 13. Immunoblots of FSHD and control myotubes with antibodies to the C- and N-termini of SLC34A2 (A) and after immunoprecipitation with MX35 (B), followed by blotting.

[12] = 10 mg/kg BID IP from 5 weeks after engraftment

| Molecule | expression of the SLC34A2 protein [1] | expression of the mRNAs encoding DUX4 target genes, including SLC34A2 [2] | LEUTX reduction in expression [2, 12] | MBD3L2 reduction in expression [2, 12] | SLC34A2 reduction in expression [2, 12] [%] | SLC34A2 protein level ([1]; cultured FSHD myotubes, immunoblots) [fold] | expression of SLC34A2 (SLC34A2 [3]) | surface labeling signal of SLC34A2 protein [4] | mRNAs encoding DUX4, SLC34A2 and other gene products downstream of DUX4 [5] | detection of antibody-tagged fibers in grafts [6] | recognition of SLC34A2 in xenograft sections (SLC34A2 [7]) | labeling of control graft sections (SLC34A2 [8]) | binding to SLC34A2 (SLC34A2 [9]) | labeling of the surface of living myotubes (SLC34A2 [10]) | immunoprecipitation of SLC34A2 (SLC34A2 [11]) |
| --- | --- | --- | --- | --- | --- | --- | --- | --- | --- | --- | --- | --- | --- | --- | --- |
| CC(C)(C)Cn1c(N)nc2ccc(-c3[nH]c(C(C)(C)C)nc3-c3ccc(F)cc3)nc21 [LY222820, ralimetinib] | Decreased expression | reduces expression | 60-70% | 60-70% | 41 |  |  |  |  |  |  |  |  |  |  |
| Cc1c(F)cc(C(=O)NC2CC2)cc1-c1ccc(C(=O)NCC(C)(C)C)cn1 [losmapimod] | Decreased expression |  |  |  |  | −2 | reduces the expression of SLC34A2 | reduces this signal significantly | reduces the mRNAs encoding DUX4 and SLC34A2 |  |  |  |  |  |  |
| MX35 |  |  |  |  |  |  |  |  |  | can be detected in FSHD but not control grafts | recognizes SLC34A2 in mature FSHD skeletal muscle | no labeling | bind SLC34A2 present in epithelia and cancers | specifically labels the surface of intact living FSHD myotubes, but not control, healthy myotubes | can immunoprecipitated SLC34A2 |
